ChEMBL document CHEMBL1201862, “PubChem BioAssay data set” (2004)
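Tested at 5 concentrations; 48 h exposure; 96-well plates; endpoints linearly interpolated, else capped at highest concentration. Here, GI50 denotes the concentration required for 50% inhibition of growth.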 Activity calls are given as the source filed them. Rule as the data show it: active = GI50 up to about 1.1 µM and inactive = higher.

Key:
Assay in all cases: DTP human tumour cell line panel, 48 h
SN12C = test system: SN12C
786-0 = test system: 786-0
SR = test system: SR
TK-10 = test system: TK-10
UACC-257 = test system: UACC-257
CAKI-1 = test system: CAKI-1
OVCAR-5 = test system: OVCAR-5
SF-295 = test system: SF-295
NCI-H226 = test system: NCI-H226
T47D = test system: T47D
LOX IMVI = test system: LOX IMVI
OVCAR-8 = test system: OVCAR-8
SK-MEL-5 = test system: SK-MEL-5
RPMI-8226 = test system: RPMI-8226
HT-29 = test system: HT-29
SF-268 = test system: SF-268
SNB-19 = test system: SNB-19
OVCAR-4 = test system: OVCAR-4
SF-539 = test system: SF-539
MDA-MB-231 = test system: MDA-MB-231
A498 = test system: A498
PC-3 = test system: PC-3
EKVX = test system: EKVX
M14 = test system: M14
SW-620 = test system: SW-620
HCC 2998 = test system: HCC 2998
NCI/ADR-RES = test system: NCI/ADR-RES
MCF7 = test system: MCF7
MOLT-4 = test system: MOLT-4
A549 = test system: A549
HL-60 = test system: HL-60
HOP-92 = test system: HOP-92
UACC-62 = test system: UACC-62
RXF 393 = test system: RXF 393
HCT-116 = test system: HCT-116
KM12 = test system: KM12
BT-549 = test system: BT-549
SK-MEL-28 = test system: SK-MEL-28
NCI-H522 = test system: NCI-H522
UO-31 = test system: UO-31
ACHN = test system: ACHN
HCT-15 = test system: HCT-15
Hs-578T = test system: Hs-578T
IGROV-1 = test system: IGROV-1
HOP-62 = test system: HOP-62
MDA-N = test system: MDA-N
NCI-H460 = test system: NCI-H460
K562 = test system: K562
MDA-MB-435 = test system: MDA-MB-435
CCRF-CEM = test system: CCRF-CEM
NCI-H23 = test system: NCI-H23
DU-145 = test system: DU-145
SNB-75 = test system: SNB-75
OVCAR-3 = test system: OVCAR-3
Malme-3M = test system: Malme-3M
U-251 = test system: U-251
SK-OV-3 = test system: SK-OV-3
SK-MEL-2 = test system: SK-MEL-2
COLO 205 = test system: COLO 205

O=C1COCCN1C(=O)c1ccccc1Cl
GI50 (SN12C): > 100 µM (inactive) | GI50 (786-0): > 100 µM (inactive) | GI50 (SR): > 100 µM (inactive) | GI50 (TK-10): > 100 µM (inactive) | GI50 (UACC-257): > 100 µM (inactive) | GI50 (CAKI-1): > 100 µM (inactive) | GI50 (OVCAR-5): > 100 µM (inactive) | GI50 (SF-295): > 100 µM (inactive) | GI50 (NCI-H226): > 100 µM (inactive) | GI50 (T47D): > 100 µM (inactive) | GI50 (LOX IMVI): > 100 µM (inactive) | GI50 (OVCAR-8): > 100 µM (inactive) | GI50 (SK-MEL-5): > 100 µM (inactive) | GI50 (RPMI-8226): > 100 µM (inactive) | GI50 (HT-29): > 100 µM (inactive) | GI50 (SF-268): > 100 µM (inactive) | GI50 (SNB-19): > 100 µM (inactive) | GI50 (OVCAR-4): > 100 µM (inactive) | GI50 (SF-539): > 100 µM (inactive) | GI50 (MDA-MB-231): > 100 µM (inactive) | GI50 (A498): > 100 µM (inactive) | GI50 (PC-3): > 100 µM (inactive) | GI50 (EKVX): > 100 µM (inactive) | GI50 (M14): > 100 µM (inactive) | GI50 (SW-620): > 100 µM (inactive) | GI50 (HCC 2998): > 100 µM (inactive) | GI50 (NCI/ADR-RES): > 100 µM (inactive) | GI50 (MCF7): 34 µM (inactive) | GI50 (MOLT-4): > 10 µM (inactive) | GI50 (A549): > 100 µM (inactive) | GI50 (HL-60): > 100 µM (inactive) | GI50 (HOP-92): > 100 µM (inactive) | GI50 (UACC-62): > 100 µM (inactive) | GI50 (RXF 393): > 100 µM (inactive) | GI50 (HCT-116): > 100 µM (inactive) | GI50 (KM12): > 100 µM (inactive) | GI50 (BT-549): > 100 µM (inactive) | GI50 (SK-MEL-28): > 100 µM (inactive) | GI50 (NCI-H522): > 100 µM (inactive) | GI50 (UO-31): > 100 µM (inactive) | GI50 (ACHN): > 100 µM (inactive) | GI50 (HCT-15): > 100 µM | GI50 (Hs-578T): > 100 µM (inactive) | GI50 (IGROV-1): > 100 µM (inactive) | GI50 (HOP-62): > 100 µM (inactive) | GI50 (MDA-N): > 100 µM (inactive) | GI50 (NCI-H460): > 100 µM (inactive) | GI50 (K562): > 100 µM (inactive) | GI50 (MDA-MB-435): > 100 µM (inactive) | GI50 (CCRF-CEM): > 100 µM (inactive) | GI50 (NCI-H23): > 100 µM (inactive) | GI50 (DU-145): > 100 µM (inactive) | GI50 (SNB-75): > 100 µM (inactive) | GI50 (OVCAR-3): > 100 µM (inactive) | GI50 (Malme-3M): > 100 µM (inactive) | GI50 (U-251): > 100 µM (inactive)

CC(C)C(=O)CP(=O)(O)O
GI50 (SN12C): > 100 µM (inactive) | GI50 (786-0): > 100 µM (inactive) | GI50 (SR): > 100 µM (inactive) | GI50 (TK-10): > 100 µM (inactive) | GI50 (UACC-257): > 100 µM (inactive) | GI50 (CAKI-1): > 100 µM (inactive) | GI50 (OVCAR-5): > 100 µM (inactive) | GI50 (SF-295): > 100 µM (inactive) | GI50 (NCI-H226): > 100 µM (inactive) | GI50 (T47D): > 100 µM (inactive) | GI50 (LOX IMVI): > 100 µM (inactive) | GI50 (OVCAR-8): > 100 µM (inactive) | GI50 (SK-MEL-5): > 100 µM (inactive) | GI50 (RPMI-8226): > 100 µM (inactive) | GI50 (HT-29): > 100 µM (inactive) | GI50 (SF-268): > 100 µM (inactive) | GI50 (SNB-19): > 100 µM (inactive) | GI50 (OVCAR-4): > 100 µM (inactive) | GI50 (SK-OV-3): > 100 µM (inactive) | GI50 (SK-MEL-2): > 100 µM (inactive) | GI50 (SF-539): > 100 µM (inactive) | GI50 (MDA-MB-231): > 100 µM (inactive) | GI50 (A498): > 100 µM (inactive) | GI50 (PC-3): > 100 µM (inactive) | GI50 (EKVX): 23.4 µM (inactive) | GI50 (M14): > 100 µM (inactive) | GI50 (SW-620): > 100 µM (inactive) | GI50 (COLO 205): > 100 µM (inactive) | GI50 (NCI/ADR-RES): > 100 µM (inactive) | GI50 (MCF7): > 100 µM (inactive) | GI50 (MOLT-4): > 100 µM (inactive) | GI50 (A549): > 100 µM (inactive) | GI50 (HL-60): > 100 µM (inactive) | GI50 (HOP-92): > 100 µM (inactive) | GI50 (UACC-62): > 100 µM (inactive) | GI50 (RXF 393): > 100 µM (inactive) | GI50 (HCT-116): > 100 µM (inactive) | GI50 (KM12): > 100 µM (inactive) | GI50 (BT-549): > 100 µM (inactive) | GI50 (SK-MEL-28): > 100 µM (inactive) | GI50 (NCI-H522): > 100 µM (inactive) | GI50 (ACHN): > 100 µM (inactive) | GI50 (HCT-15): > 100 µM | GI50 (Hs-578T): > 100 µM (inactive) | GI50 (IGROV-1): > 100 µM (inactive) | GI50 (HOP-62): > 100 µM (inactive) | GI50 (MDA-N): > 100 µM (inactive) | GI50 (NCI-H460): > 100 µM (inactive) | GI50 (K562): > 100 µM (inactive) | GI50 (MDA-MB-435): > 100 µM (inactive) | GI50 (CCRF-CEM): > 100 µM (inactive) | GI50 (NCI-H23): > 100 µM (inactive) | GI50 (DU-145): > 100 µM (inactive) | GI50 (SNB-75): > 100 µM (inactive) | GI50 (OVCAR-3): > 100 µM (inactive) | GI50 (Malme-3M): > 100 µM (inactive) | GI50 (U-251): > 100 µM (inactive)
